These results are taken from US7754696B2 (Pharmaceutical Solutions, Inc., priority 2001, dated 2010).

In data set [1] the test system is round worms. The data set can be described thus: Treatment of a poultry flock via drinking water, round worms. The conditions noted are these: 10000 head flock, 5 percent concentration mixture in water, administered over 12 hours, 180 ug per kg. Type of data set: in vivo. On the procedure: (§1) 400 cc of a 5 percent concentration mixture was added to 5 gallons of water to form a stock solution that was administered over 12 hours at a dose of 180 ug per kg.

Another data set concerns foul mites. The data set can be described thus: Treatment of a poultry flock via drinking water, mites. Type of data set: in vivo. The conditions noted are these: 10000 head flock, 5 percent concentration mixture in water, administered over 12 hours, 180 ug per kg. On the procedure: as §1
The conditions of data set [2]: cited from earlier work.
For data set [3] the following is noted: cited from earlier work. The source holds these as a separate data set.
The test system of data set [4] is round worms. The data set can be described thus: Treatment of swine via drinking water, fecal examinations pre and post treatment. Type of data set: in vivo. The conditions noted are these: 1000 100-pound pigs, 5 percent solution in 10 gallons of water stock solution. On the procedure:
This is 20 mg per 100 pounds or 200 ug per pound.

For data set [5] the following is noted: room temperature; cited from earlier work.

Regarding `CC[C@H](C)[C@H]1O[C@]2(CC[C@@H]1C)C[C@@H]1C[C@@H](C/C=C(\C)C(O[C@H]3C[C@H](OC)[C@@H](O[C@H]4C[C@H](OC)[C@@H](O)[C@H](C)O4)[C@H](C)O3)[C@@H](C)/C=C/C=C3\CO[C@@H]4[C@H](O)C(C)=C[C@@H](C(=O)O1)[C@]34O)O2` (stereo partly drawn) [Ivermectin, 22,23 dihydroavermectin Bla], the “elimination of worms from the birds” value in the data set with round worms [1] is listed as 100%. Also, the “elimination of mites from the birds” value in the data set with foul mites came to 100%. In addition, in data set [2] (adults), the “apparent volume of distribution” value is “about 47 liters”, the systemic clearance entry was “about 1.2 liters/hour” and the terminal half-life result is reported as “about 27 hours”. Besides, the “time to peak levels in plasma” value in data set [2] (human beings, oral administration) is no more than 4 h. Moreover, the “bound to plasma proteins” value in data set [3] is recorded as “about 93%”. Besides, in the data set with round worms [4], the “reduction in round worms based on fecal examinations” value stood at 98%. The solubility in water entry in data set [5] is “about 0.005 mg per ml”.
